# Measurements published in ChEMBL document CHEMBL1255557, “Heterobiaryl and heterobiaryl ether derived M5 positive allosteric modulators” (Bioorg Med Chem Lett, 2010).
# Activity calls are given as the source filed them. No cut-off for these calls is given here.
# What was measured:
# [1] = target: T1, Muscarinic acetylcholine receptor M5 (Homo sapiens, UniProt P08912); test: Positive allosteric modulation of muscarinic M5 receptor expressed in CHO cells assessed as effect on acetylcholine-induced intracellular calcium mobilization after 1 hr by FLIPR assay; type: functional, cell-based
# T1 sequence (P08912 whole entry): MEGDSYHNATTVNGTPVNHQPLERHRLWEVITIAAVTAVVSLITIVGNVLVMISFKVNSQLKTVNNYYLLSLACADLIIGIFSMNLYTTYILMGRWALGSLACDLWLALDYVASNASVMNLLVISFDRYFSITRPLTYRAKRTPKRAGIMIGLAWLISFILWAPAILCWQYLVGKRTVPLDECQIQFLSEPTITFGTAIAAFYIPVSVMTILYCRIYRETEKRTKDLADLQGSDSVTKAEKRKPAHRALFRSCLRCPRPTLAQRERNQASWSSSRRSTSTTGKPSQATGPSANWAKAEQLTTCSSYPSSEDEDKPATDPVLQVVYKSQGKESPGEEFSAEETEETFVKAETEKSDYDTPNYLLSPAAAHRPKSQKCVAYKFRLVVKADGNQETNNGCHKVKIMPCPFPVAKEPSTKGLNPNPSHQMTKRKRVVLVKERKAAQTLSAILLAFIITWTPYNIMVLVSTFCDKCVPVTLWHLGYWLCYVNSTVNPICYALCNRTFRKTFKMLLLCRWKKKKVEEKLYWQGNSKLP
# [2] = target: Sodium-dependent noradrenaline transporter (Homo sapiens) (UniProt P23975); test: Inhibition of NET
# Chain of Sodium-dependent noradrenaline transporter (Homo sapiens) (P23975 whole entry): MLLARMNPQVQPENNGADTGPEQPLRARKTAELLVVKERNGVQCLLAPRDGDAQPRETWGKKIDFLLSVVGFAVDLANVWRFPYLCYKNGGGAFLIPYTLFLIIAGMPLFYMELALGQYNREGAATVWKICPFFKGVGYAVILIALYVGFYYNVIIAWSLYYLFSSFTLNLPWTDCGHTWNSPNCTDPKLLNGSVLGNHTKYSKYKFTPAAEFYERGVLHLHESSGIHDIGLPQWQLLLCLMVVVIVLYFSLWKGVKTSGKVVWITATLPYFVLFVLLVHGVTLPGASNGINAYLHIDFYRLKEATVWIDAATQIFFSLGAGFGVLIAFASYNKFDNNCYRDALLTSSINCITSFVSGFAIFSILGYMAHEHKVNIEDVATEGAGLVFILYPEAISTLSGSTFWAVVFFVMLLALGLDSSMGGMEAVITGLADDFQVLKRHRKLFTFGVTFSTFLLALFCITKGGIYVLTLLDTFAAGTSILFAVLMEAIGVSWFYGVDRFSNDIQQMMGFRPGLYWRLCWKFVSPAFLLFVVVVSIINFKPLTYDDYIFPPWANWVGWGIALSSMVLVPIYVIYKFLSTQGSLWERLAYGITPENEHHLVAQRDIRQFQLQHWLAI
# [3] = target: Muscarinic acetylcholine receptor M3 (Homo sapiens) (UniProt P20309); test: Positive allosteric modulation of muscarinic M3 receptor expressed in CHO cells assessed as potentiation of acetylcholine-induced intracellular calcium mobilization at 30 uM after 1 hr by FLIPR assay relative to acetylcholine; type: functional, cell-based
# Chain of Muscarinic acetylcholine receptor M3 (Homo sapiens) (P20309 whole entry, looked up): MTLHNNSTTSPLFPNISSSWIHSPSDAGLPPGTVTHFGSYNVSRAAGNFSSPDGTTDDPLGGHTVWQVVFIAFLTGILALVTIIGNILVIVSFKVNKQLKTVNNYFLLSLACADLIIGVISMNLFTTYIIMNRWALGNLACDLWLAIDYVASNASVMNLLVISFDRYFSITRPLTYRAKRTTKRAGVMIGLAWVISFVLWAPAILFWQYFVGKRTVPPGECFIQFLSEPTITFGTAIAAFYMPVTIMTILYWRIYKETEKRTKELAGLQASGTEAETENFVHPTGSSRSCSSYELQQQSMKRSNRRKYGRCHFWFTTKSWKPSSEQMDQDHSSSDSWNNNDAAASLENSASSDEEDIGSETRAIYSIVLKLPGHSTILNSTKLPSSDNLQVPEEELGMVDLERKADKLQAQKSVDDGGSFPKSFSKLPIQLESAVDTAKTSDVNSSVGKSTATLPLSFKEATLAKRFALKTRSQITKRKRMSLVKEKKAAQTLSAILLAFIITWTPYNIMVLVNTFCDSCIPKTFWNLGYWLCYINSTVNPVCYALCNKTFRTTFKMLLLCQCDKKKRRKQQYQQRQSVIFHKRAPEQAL
# [4] = target: T2, Muscarinic acetylcholine receptor M2 (Homo sapiens) (UniProt P08172); test: Positive allosteric modulation of muscarinic M2 receptor expressed in CHO cells co-expressing Gqi5 assessed as potentiation of acetylcholine-induced intracellular calcium mobilization at 30 uM after 1 hr by FLIPR assay relative to acetylcholine; type: functional, cell-based
# T2 sequence (whole entry): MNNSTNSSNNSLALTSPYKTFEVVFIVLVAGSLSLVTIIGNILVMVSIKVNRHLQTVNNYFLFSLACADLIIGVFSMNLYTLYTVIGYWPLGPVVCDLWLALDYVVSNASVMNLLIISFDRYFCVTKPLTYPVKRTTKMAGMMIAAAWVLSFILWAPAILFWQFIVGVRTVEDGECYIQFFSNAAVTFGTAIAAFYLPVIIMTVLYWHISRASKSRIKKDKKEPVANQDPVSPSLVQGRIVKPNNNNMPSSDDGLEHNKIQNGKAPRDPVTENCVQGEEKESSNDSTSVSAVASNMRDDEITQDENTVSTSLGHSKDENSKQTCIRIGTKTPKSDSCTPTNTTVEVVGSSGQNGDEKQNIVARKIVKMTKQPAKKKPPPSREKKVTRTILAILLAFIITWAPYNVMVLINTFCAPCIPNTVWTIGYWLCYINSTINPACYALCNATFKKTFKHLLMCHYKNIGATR
# [5] = target: T3, Muscarinic acetylcholine receptor M1 (Homo sapiens) (UniProt P11229); test: Positive allosteric modulation of muscarinic M1 receptor expressed in CHO cells assessed as potentiation of acetylcholine-induced intracellular calcium mobilization at 30 uM after 1 hr by FLIPR assay relative to acetylcholine; type: functional, cell-based
# T3 sequence (whole entry): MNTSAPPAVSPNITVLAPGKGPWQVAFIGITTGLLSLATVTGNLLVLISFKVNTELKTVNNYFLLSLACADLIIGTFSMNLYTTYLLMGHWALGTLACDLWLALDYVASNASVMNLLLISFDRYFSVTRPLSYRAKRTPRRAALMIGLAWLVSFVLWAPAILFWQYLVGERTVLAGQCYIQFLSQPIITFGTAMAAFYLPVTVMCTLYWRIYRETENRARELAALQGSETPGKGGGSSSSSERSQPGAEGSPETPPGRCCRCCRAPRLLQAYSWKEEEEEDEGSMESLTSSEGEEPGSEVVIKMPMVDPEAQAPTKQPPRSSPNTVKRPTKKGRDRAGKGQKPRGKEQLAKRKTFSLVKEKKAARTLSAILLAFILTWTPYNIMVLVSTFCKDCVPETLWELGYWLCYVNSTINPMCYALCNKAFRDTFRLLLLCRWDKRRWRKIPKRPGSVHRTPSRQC
# [6] = target: T4, Muscarinic acetylcholine receptor M5 (Homo sapiens) (UniProt P08912); test: Positive allosteric modulation of muscarinic M5 receptor expressed in CHO cells assessed as potentiation of acetylcholine-induced intracellular calcium mobilization at 30 uM after 1 hr by FLIPR assay relative to acetylcholine; type: functional, cell-based
# T4 sequence (whole entry): T1 sequence (P08912 whole entry)
# [7] = target: T4, Muscarinic acetylcholine receptor M5 (Homo sapiens); test: Positive allosteric modulation of muscarinic M5 receptor expressed in CHO cells assessed as effect on acetylcholine-induced intracellular calcium mobilization after 1 hr by FLIPR assay relative to acetylcholine; type: functional, cell-based
# [8] = target: T5, Muscarinic acetylcholine receptor M4 (Homo sapiens) (UniProt P08173); test: Positive allosteric modulation of muscarinic M4 receptor expressed in CHO cells co-expressing Gqi5 assessed as potentiation of acetylcholine-induced intracellular calcium mobilization at 30 uM after 1 hr by FLIPR assay relative to acetylcholine; type: functional, cell-based
# T5 sequence (whole entry): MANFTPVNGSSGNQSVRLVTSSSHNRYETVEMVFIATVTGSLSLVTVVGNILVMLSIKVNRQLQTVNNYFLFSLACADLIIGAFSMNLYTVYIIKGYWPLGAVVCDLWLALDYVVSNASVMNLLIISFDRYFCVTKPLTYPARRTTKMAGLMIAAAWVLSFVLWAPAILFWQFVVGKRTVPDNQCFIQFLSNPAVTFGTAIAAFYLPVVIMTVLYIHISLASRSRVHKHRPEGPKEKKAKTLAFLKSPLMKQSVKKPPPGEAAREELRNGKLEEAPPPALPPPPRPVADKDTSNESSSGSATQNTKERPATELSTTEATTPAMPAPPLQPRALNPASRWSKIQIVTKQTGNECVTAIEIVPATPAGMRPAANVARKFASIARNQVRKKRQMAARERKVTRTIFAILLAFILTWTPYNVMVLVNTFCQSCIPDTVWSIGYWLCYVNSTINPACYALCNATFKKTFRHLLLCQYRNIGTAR
# [9] = target: Histamine H1 receptor (Homo sapiens) (UniProt P35367); test: Inhibition of histamine H1 receptor
# Chain of Histamine H1 receptor (Homo sapiens) (P35367 whole entry): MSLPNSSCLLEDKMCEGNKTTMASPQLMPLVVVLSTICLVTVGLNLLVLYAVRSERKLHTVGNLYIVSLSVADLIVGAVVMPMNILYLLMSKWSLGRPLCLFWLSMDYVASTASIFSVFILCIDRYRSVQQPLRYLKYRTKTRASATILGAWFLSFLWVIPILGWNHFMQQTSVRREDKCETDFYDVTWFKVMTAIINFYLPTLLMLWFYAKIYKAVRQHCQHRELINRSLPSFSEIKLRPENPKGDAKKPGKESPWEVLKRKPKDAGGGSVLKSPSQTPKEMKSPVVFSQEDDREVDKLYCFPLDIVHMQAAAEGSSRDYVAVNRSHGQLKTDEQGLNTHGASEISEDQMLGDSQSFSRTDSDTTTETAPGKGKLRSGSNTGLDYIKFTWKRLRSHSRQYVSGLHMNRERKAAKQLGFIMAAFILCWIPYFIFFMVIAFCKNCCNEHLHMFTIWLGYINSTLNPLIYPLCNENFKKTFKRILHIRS
# [10] = Partition coefficient, log P of the compound; type: physicochemical; settings: octanol/water
# [11] = target: T6, Muscarinic acetylcholine receptor M2 (Homo sapiens, UniProt P08172); test: Positive allosteric modulation of muscarinic M2 receptor expressed in CHO cells co-expressing Gqi5 assessed as effect on acetylcholine-induced intracellular calcium mobilization after 1 hr by FLIPR assay
# T6 sequence (P08172 whole entry): T2 sequence (whole entry)
# [12] = target: T7, Muscarinic acetylcholine receptor M4 (Homo sapiens, UniProt P08173); test: Positive allosteric modulation of muscarinic M4 receptor expressed in CHO cells co-expressing Gqi5 assessed as effect on acetylcholine-induced intracellular calcium mobilization after 1 hr by FLIPR assay; type: functional, cell-based
# T7 sequence (P08173 whole entry): T5 sequence (whole entry)
SMILES,EC50 [1] [µM],inhibition [2],Activity [3],Activity [4],Activity [5],fold change (FC) [6],Emax [7] [%],Activity [8],inhibition [9],logP [10],EC50 [11] [µM],EC50 [12] [µM]
O=C1C(=O)N(Cc2ccc(Oc3cccc(F)n3)cc2)c2ccc(OC(F)(F)F)cc21,1.5,Active,inactive,inactive,inactive,6,62,inactive,Active,–,–,–
O=C1C(=O)N(Cc2ccc(-c3ccccc3)nc2)c2ccc(OC(F)(F)F)cc21,3.8,–,inactive,inactive,inactive,14,76,inactive,–,3.6,–,–
O=C1C(=O)N(Cc2ccc(Br)cc2)c2ccccc21,4.6,–,–,–,–,–,–,–,–,–,> 30,> 30
